Laboratory results: US20210130362A1, “MEDICAL USE OF COMPOUND III” (Boehringer Ingelheim International GmbH, priority 2017, published 2021)

How the values were obtained:
[1] = Intrinsic dissolution rate of compound III; type: physicochemical; conditions: physiologically relevant pH range above pH 4
[2] = tested on: patients with schizophrenia on stable antipsychotic treatment; assay: Multinational, randomised, double-blind, placebo-controlled, parallel group clinical trial of compound III, 12 weeks of treatment; type: in vivo, human
Description: Regarding reducing the exacerbations of symptoms characterizing relapse, including suicidality, the clinical trial disclosed below was designed to show the efficacy of compound III in improvement of cognitive impairment in patients with schizophrenia as compared to placebo. All patients were on stable antipsychotic treatment (see Table 8 in FIGS. 6A-6C). The study was a multinational, multicentre, randomised, double-blind, placebo-controlled, parallel group trial.
Compound III (10, 25 and 50 mg) and matching placebo were supplied as film-coated tablets (formulation 1).
In total, 516 patients with schizophrenia on stable antipsychotic treatment (Table 8 in FIGS. 6A-6C) as described below were randomized into this trial. […]
The primary safety endpoints are as follows: • Occurrence of adverse events (AEs)/serious adverse events (including the abnormalities of physical examination, vital signs, electrocardiogram test and laboratory tests) • Occurrence of protocol-specified adverse events of special interest • Dramatic worsening of disease state as assessed by PANSS • Suicidality as assessed by Columbia Suicidal Severity Rating Scale (C-SSRS) […]

[3] = patients with schizophrenia receiving antipsychotic therapy

intrinsic dissolution rate [1]: low
SMILES: O=c1[nH]c(Cc2ccccn2)nc2c1cnn2C1CCOCC1 [compound III]
psychiatric serious adverse events (SAEs): hospitalization for disease worsening (schizophrenia, psychotic disorder) and suicidality leading to hospitalization ([2]; any arm dosed with compound III (10, 25, 50, 100 mg qd), 12 weeks, treated set, 8/8 (100%) of these SAEs in placebo arm): none
change in intensity and occurrence of suicidal ideation compared to placebo [2, 3]: decrease
change in psychiatric serious adverse events (hospitalization for serious worsening of schizophrenia symptoms) compared to placebo [2, 3]: statistically significant, clinically meaningful decrease
